In experiment [1] the test system is sheep A3 adenosine receptor. The following applies: cited from earlier work.
In experiment [2] the target is T1, human A3 adenosine receptor (Homo sapiens, UniProt P0DMS8).
T1 construct: clone HS-21a contained the complete open reading frame corresponding to the human homolog of the rat A3 adenosine receptor; expressed in transfected cells; host or cells: CHO cells stably transfected with HS-21a cDNA
T1 sequence (P0DMS8 1-318): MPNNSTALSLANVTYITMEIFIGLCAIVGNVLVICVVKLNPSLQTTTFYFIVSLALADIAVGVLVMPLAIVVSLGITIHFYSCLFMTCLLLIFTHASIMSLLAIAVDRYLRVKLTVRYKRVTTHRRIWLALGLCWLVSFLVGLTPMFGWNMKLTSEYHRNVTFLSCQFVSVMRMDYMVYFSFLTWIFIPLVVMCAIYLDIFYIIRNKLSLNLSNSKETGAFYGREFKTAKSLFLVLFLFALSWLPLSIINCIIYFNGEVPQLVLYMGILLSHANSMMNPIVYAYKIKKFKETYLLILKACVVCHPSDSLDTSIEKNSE
Description: inhibition of forskolin-stimulated cAMP accumulation in stably transfected CHO cells expressing the human A3 receptor. To be noted: stably transfected CHO cells, human A3. The class given is cell-based. As to the method: The human A3 adenosine receptor from a striatal cDNA library can be cloned using a probe derived from the homologous rat sequence.
cAMP Accumulation in Stable CHO Cell Lines
The changes in cAMP accumulation can alternatively be measured in stably transfected CHO cells expressing the human adenosine receptor subtypes. CHO cells are washed twice in phosphate buffered saline (PBS) and detached in 0.2% EDTA in PBS. The cells are pelleted at 800 rpm for 10 min and resuspended in KRH buffer (140 mM NaCl/5 mM KCl/2 mM CaCl2 /1.2 mM MgSO4 /1.2 mM KH2 PO4 /6 mM glucose/25 mM Hepes buffer, pH 7.4). The cells are washed once in KRH buffer and resuspended at 10^7 cells/mL. The cell suspension (100 μl) is mixed with 100 μl of KRH buffer containing 200 uM Ro 20-1724 and incubated at 37° C. for 10 minutes. Adenosine (10 uM) was added in 200 μl KRH buffer containing 200 uM Ro 20-1724 and incubated at 37° C. for 20 minutes. After the incubation, 400 μl of 0.5 mM NaOAc (pH 6.2) was added and the sample was boiled for 20 minutes. The supernatant was recovered by centrifugation for 15 minutes and stored at -70° C. cAMP levels were determined by radiommunoassay (RIANEN kit, DuPont/NEN) using the to acetylation protocol. The effect of antagonists on cAMP accumulation are measured by preincubation for 20 minutes before adding adenosine.

The test system of experiment [3] is rat A3 adenosine receptor. To be noted: cited from earlier work.
The target of experiment [4] is T1, human A3 adenosine receptor. The experiment is described as follows: 125I-ABA binding to membranes of stably transfected CHO cells expressing the human A3 adenosine receptor (HS-21a). The following applies: for potency order of agonists / potency order of antagonists: order in words/symbols. As to the method:
Membranes were prepared from transiently transfected COS7 cells […] after transfection or from G418-selected stably transfected CHO or HEK 293 cells. Cells were harvested in 1 mM EDTA in phosphate buffered saline and centrifuged at 2000×g for 10 minutes. The cell pellet was washed once with phosphate buffered saline. The cell pellet was resuspended in 2 mL of 5 mM Tris, pH 7.6/5mM MgCl2. Membranes were prepared from the cells by freeze-thaw lysis in which the suspension was frozen in a dry ice/ethanol bath and thawed at 25° C. twice. The suspension was homogenized after adding an additional 2 mL of 5 mM Tris, pH 7.6/5 mM MgCl2, in a glass dounce homogenizer with 20 strokes. The membranes were pelleted at 40,000×g at 4° C. for 20 minutes. The membrane pellet was resuspended at a protein concentration of 1-2 mg/mL in binding assay buffer, 50 mM Tris, pH 7.6/10 mM MgCl2. Protein concentration was determined by the method of Bradford ((1976) Anal. Biochem. 72: 248-250). […] Saturation binding of [^125 I]-N^6 -aminiobenizyladenosine (125I-ABA) or [^125 I]-N^6 -2-(4-amino-3-iodophenyl)ethyladenosine (APNEA) was performed on membranes prepared from pSVLA3 transfected COS7 cells. Membranes (100 μg) were incubated in the presence of 0.2 U/mL adenosine deaminase with increasing concentrations of ^125 I-ABA in the range of 0.1-30 nM for 120 minutes at 25° C. in a total volume of 500 μl. The binding assay was terminated by rapid filtration and three washes with ice-cold 50 mM Tris, pH 7.6/10 mM MgCl2 on a Skatron cell harvester equipped with a receptor binding flitermat (SKATRON INSTRUMENTS, INC). Non-specific binding was determined on non-transfected cells. Bound radioactivity was measured by scintillation counting in Ready Safe Scintillation Cocktail (BECKMAN).
The 1.7 kb HS-21a cDNA (A3) was subcloned as a SalI-BamHl fragment into the expression vector pCMV5 (Mumby, S. M., Heukeroth, R. O., Gordon, J. I. and Gilman, A. G. (1990) Proc. Natl. Acad. Sci. USA 87, 728-732.) creating the vector pCMV5-A3. CHO or HEK 293 cells stably expressing the human HS-21 a cDNA were prepared by co-transfection of 15 μg pCMV5-A3 and 1 μg pWLneo (Stratagene) using the calcium phosphate method. Stable cell lines were also generated using EBV based mammalian expression vectors, pREP (INVITROGEN). Neomycin resistant colonies were selected in 1 mg/mL G418 (GIBCO). Stable colonies were screened for expression of HS-21a by ^125 I-ABA binding.
Membranes were prepared from stable CHO cell lines in 10 mM Hepes, pH 7.4 containing 0.1 mM benzamidine and 0.1 mM PMSF as described (Mahan, L. C. et al., (1991) Mol. Pharinacol. 40, 1-7). Pellets were resuspended in 5 mM Hepes, pH 7.4/5 mM MgCl2 /0.1 mM benzarnidine/0.1 mM PMSF at a protein concentration of 1-2 mg/mL and were incubated with adenosine deaminase (Boehringer Mannheim), 2 U/mL at 37° C. for 20 minutes. Saturation binding of ^125 I-ABA was carried out on 50 μg of membranes for 120 minutes at 25° C. in a total volume of 100 μl. The assay was terminated by rapid filtration and three washes with ice-cold binding buffer on a Skatron harvester equipped with a receptor binding filtermat (Skatron Instruments, Inc.). The specific activity of ^125 I-ABA, initially 2,200 Ci/mmol, was reduced to 100 Ci/mmol with nonradioactive I-ABA for saturation analysis. Nonspecific binding was measured in the presence of 1 uM I-ABA. The KD and Bmax values were calculated by the EBDA program (McPherson, G. A. (1983) Computer Programs for Biomedicine 17, 107-114). Competition binding of agonists and antagonists was determined with ^125 I-ABA (0.17-2.0 nM, 2000 Ci/mmol). […] Binding data were analyzed and competition curves were constructed by use of the nonlinear regression curve fitting program Graph PAD InPlot, Version 3.0 (Graph Pad Software, San Diego).

Experiment [5] relates to rat A3 adenosine receptor. To be noted: cited from earlier work. The source holds these as a separate data set.
The next experiment relates to A3 adenosine receptor. To be noted: animal model; Jin et al. 1997; cited from earlier work.
Experiment [6] has as its system receptor exhibiting an agonist pharmacological profile thought to be characteristic of the rat A3 subtype. To be noted: angiotensin II-supported pithed rat; cited from earlier work.
Another experiment deals with A1 adenosine receptor. To be noted: cited from earlier work.
The subject of the next experiment is A2A adenosine receptor. The following applies: cited from earlier work.
Experiment [7] has as its target T1, human A3 adenosine receptor. The following applies: cited from earlier work.
Experiment [8] deals with sheep A3 adenosine receptor. To be noted: cited from earlier work. This is another data set of the same source.
The subject of another experiment is A2B adenosine receptor. The following applies: cited from earlier work.
The test system of the next experiment is asthmatics. The following applies: cited from earlier work.

Consider 14 compounds from patent US6303619A, “Meta-substituted acidic 8-phenylxanthine antagonists of A3 human adenosine receptors” (priority 1998, dated 2001).

pKi: −log10 of the molar value. “Also recorded” adds a separate entry of the source.

Turning to `CCNC(=O)[C@H]1O[C@@H](n2cnc3c(N)ncnc32)[C@H](O)[C@@H]1O` [NECA, N-ethylcarboxamidoadenosine], the agonist affinity order entry in experiment [1] was “I-ABA>APNEA>NECA≥R-PIA>>CPA”. Further, the “inhibition of forskolin-stimulated cAMP accumulation” value in [2] is given as 30-40%. The “potency order for inhibition of cyclic AMP accumulation” value (shortened to “potency order for inhibition”) in experiment [3] was “NECA=R-PIA>CGS21680”. The “prevention of specific binding of 125I-ABA” value in experiment [4] (400 uM NECA) is “prevented”. Besides, in experiment [4] (human A3), the “potency order of agonists” value is given as “N-ethylcarboxamidoadenosine (NECA)≥R-phenylisopropyladenosine(R-PIA)>N^6 -cyclopentyladenosine (CPA)>S-p-benylisopropyladenosine (S-PIA); also recorded: NECA>R-PIA>CPA>S-PLA”.

Regarding `CCCn1c(=O)c2[nH]c(-c3ccc(OCC(=O)NCCN)cc3)nc2n(CCC)c1=O` [XAC], the “binding to rat A3 receptor” value in experiment [5] is given as “not to bind”.

For `C[C@@H](Cc1ccccc1)Nc1ncnc2c1ncn2[C@@H]1O[C@H](CO)[C@@H](O)[C@H]1O` [S-PIA, (R,S)-N^6-phenyl-2-propyladenosine], in experiment [2], the “inhibition of forskolin-stimulated cAMP accumulation” value is reported as 30-40%. Further, the “potency order of agonists” value in experiment [4] (human A3) is reported as “N-ethylcarboxamidoadenosine (NECA)≥R-phenylisopropyladenosine(R-PIA)>N^6 -cyclopentyladenosine (CPA)>S-p-benylisopropyladenosine (S-PIA); also recorded: NECA>R-PIA>CPA>S-PLA”.

Regarding `OC[C@H]1O[C@@H](n2cnc3c(O)ncnc32)[C@H](O)[C@@H]1O` [inosine], in the experiment with A3 adenosine receptor, the “induction of mast cell degranulation” value is “induce mast cell degranulation”.

Consider `Nc1ccc(CCNc2ncnc3c2ncn3[C@@H]2O[C@H](CO)[C@@H](O)[C@H]2O)cc1I` [APNEA, N^6-2-(4-amino-3-iodophenyl)ethyladenosine], for which, in experiment [1], the agonist affinity order result is given as “I-ABA>APNEA>NECA≥R-PIA>>CPA”.

On to `C[C@H](Cc1ccccc1)Nc1ncnc2c1ncn2[C@@H]1O[C@H](CO)[C@@H](O)[C@H]1O` [R-PIA], for which the agonist affinity order result in experiment [1] is on record as “I-ABA>APNEA>NECA≥R-PIA>>CPA”. The “inhibition of forskolin-stimulated cAMP accumulation” value in [2] was 30-40%. In [3], the “potency order for inhibition” value is reported as “NECA=R-PIA>CGS21680”. Moreover, in experiment [4] (human A3), the “potency order of agonists” value is recorded as “N-ethylcarboxamidoadenosine (NECA)≥R-phenylisopropyladenosine(R-PIA)>N^6 -cyclopentyladenosine (CPA)>S-p-benylisopropyladenosine (S-PIA); also recorded: NECA>R-PIA>CPA>S-PLA”.

In the case of `CCNC(=O)[C@H]1O[C@@H](n2cnc3c(N)nc(NCCc4ccc(CCC(=O)O)cc4)nc32)[C@H](O)[C@@H]1O` [CGS21680], in [3], the “potency order for inhibition” value is on record as “NECA=R-PIA>CGS21680”.

With `CCCn1c(=O)c2[nH]c(-c3ccc(C=CC(=O)O)cc3)nc2n(CCC)c1=O` [BW-A1433, 1,3-dipropyl-8-(4-acrylate) phenylxanthine], the “potency order of antagonists” value in [4] (human A3) is reported as “I-ABOPX>1,3-dipropyl-8-(4-acrylate) phenylxanthine (BW-A1433)≥xanthine amino cogener (XAC)>>1,3-dipropyl-8-cyclopentylxanthine (DPCPX)”.

With `Nc1ccc(CCNc2ncnc3c2ncn3[C@@H]2O[C@H](CO)[C@@H](O)[C@H]2O)cc1[125I]` [^125 I-APNEA, N^6-2-(4-amino-3^125 iodophenyl)ethyladenosine], the “binding to rat A3 receptor” value in [5] is “bind”. Further, the “non-specific binding to CHO cell membranes” value in experiment [4] (125I-APNEA, preliminary experiments) is reported as “high non-specific”.

On to `Cn1c(=O)c2[nH]c(-c3ccc(S(=O)(=O)O)cc3)nc2n(C)c1=O` [8-(para-sulfophenyl)theophylline], for which the “sensitivity of hypotension to blockade” value in experiment [6] is “insensitive to blockade”. In the experiment with A1 adenosine receptor, the “action on A1 subtype” value was “broad action”. Besides, the “action on A2A subtype” value in the experiment on A2A adenosine receptor is given as “broad action”. In experiment [7], the “blockade of human A3 receptor” value is listed as “blocks”. In addition, the “blockade of sheep A3 receptor” value in [8] is given as “blocks”. In addition, the “action on A2B subtype” value in the experiment with A2B adenosine receptor is on record as “broad action”.

As for `Cn1c(=O)c2[nH]cnc2n(C)c1=O` [theophylline], the “antagonism of adenosine-induced bronchoconstriction” value in the experiment on asthmatics is reported as “antagonized”.

For the compound `CCCn1c(=O)c2[nH]c(-c3ccc(OCC(=O)O)cc3)nc2n(Cc2ccc(N)c(I)c2)c1=O` [I-ABOPX], in [4] (human A3), the “A3 antagonist affinity in words” value is recorded as “highest affinity para-substituted antagonist yet reported for A3 adenosine receptors” and the “potency order of antagonists” value is given as “I-ABOPX>1,3-dipropyl-8-(4-acrylate) phenylxanthine (BW-A1433)≥xanthine amino cogener (XAC)>>1,3-dipropyl-8-cyclopentylxanthine (DPCPX)”.

What is called pKi is the Ki on a negative log10 scale, so that one unit is a factor of ten. For `OC[C@H]1O[C@@H](n2cnc3c(NC4CCCC4)ncnc32)[C@H](O)[C@@H]1O` [CPA, N^6 -cyclopentyladenosine], the agonist affinity order result in experiment [1] is given as “I-ABA>APNEA>NECA≥R-PIA>>CPA”. The “inhibition of forskolin-stimulated cAMP accumulation” value in [2] is 30-40%. The pKi in [4] (competition with 125I-ABA (FIG. 3a), read-out: Ki, agonists) is 7.05. For the same compound, the “potency order of agonists” value in experiment [4] (human A3) is recorded as “N-ethylcarboxamidoadenosine (NECA)≥R-phenylisopropyladenosine(R-PIA)>N^6 -cyclopentyladenosine (CPA)>S-p-benylisopropyladenosine (S-PIA); also recorded: NECA>R-PIA>CPA>S-PLA”.

For the compound `CCCn1c(=O)c2[nH]c(C3CCCC3)nc2n(CCC)c1=O` [DPCPX, 1,3-dipropyl-8-cyclopentylxanthine], in experiment [5], the “binding to rat A3 receptor” value is listed as “not to bind”. Moreover, in experiment [4] (human A3), the “potency order of antagonists” value was “I-ABOPX>1,3-dipropyl-8-(4-acrylate) phenylxanthine (BW-A1433)≥xanthine amino cogener (XAC)>>1,3-dipropyl-8-cyclopentylxanthine (DPCPX)”.
